For assay [1], the system named is reporter (luciferase) gene under AhR-binding enhancer of the TH gene and TH gene promoter. Briefly: Luciferase luminescence in genetically modified mouse during exposure to βNF (IVIS imaging). The format is in vivo. On the procedure:
When the reporter gene is a firefly luciferase gene, the method may include administering luciferin, a substrate for the luciferase, by intraperitoneal injection to the genetically modified mouse 6 to 72 hours after the administration of the test substance to the genetically modified mouse and measuring luminescence derived from the individual or derived from the enzyme activity of the luciferase in the brain with a luminescence measurement system such as an In-Vivo Imaging System (IVIS), manufactured by Xenogen Corporation.
A dioxin analog, β-naphthoflavone (βNF), was used as a test substance. A solution of βNF in corn oil was intraperitoneally injected at a βNF dose of 40 mg/kg into each of the genetically modified mice #176 (4 weeks old), #177 (6 weeks old) and #184 (6 weeks old) in the T1 generation. The same amount of corn oil as the amount of the solution in the βNF-administered group was intraperitoneally administered to each of the control group mice (the genetically modified mice in the T1 generation). […] After 5 minutes, an In-Vivo Imaging System (IVIS 100-series), manufactured by Xenogen Corporation, was used to detect luciferase luminescence in the mice. […] In addition, the brain of the genetically modified mouse #176 was cut in the vicinity of the midbrain, and luminescence from the cut section was measured with the IVIS System.

The subject of assay [2] is reporter (luciferase) gene under AhR-binding enhancer of the TH gene and TH gene promoter in primary neuronal cells. The assay is described as follows: Luciferase luminescence in primary neuronal cells isolated from genetically modified mouse during exposure to TCDD. It counts as cell-based. To be noted: 24 hours, FIG. 9; for increase in the degree of luminescence from the unexposed case: primary neuronal cells of mouse #176 embryos (E12). An excerpt: Another embodiment of the invention is directed to a method that includes isolating primary neuronal cells from the genetically modified mouse, exposing the primary neuronal cells to a test substance, and then measuring the expression of the reporter gene in the cells to evaluate the effect of the test substance on the central nervous system. When the reporter gene is a firefly luciferase gene, the method may include isolating primary neuronal cells from the genetically modified mouse, exposing the primary neuronal cells to a test substance, collecting the cells to extract proteins therefrom 2 to 72 hours after the exposure, adding luciferin, a substrate for the luciferase, to the liquid extract, and measuring luminescence derived from the enzyme activity of the luciferase with a luminometer.
The genetically modified mouse #176 (hetero, male) was mated with a wild-type mouse, and 12 days after the observation of the plug, the brain was removed from the embryo (E12: an embryonic age of 12 days) under a sterile environment. All the removed embryonic brains were collected, and 0.25% trypsin was added thereto and incubated at 37° C. for 15 minutes. The trypsin was removed. After washed tree times with the Hank's solution, the cells were suspended in a serum-containing DF 1:1 medium (Dulbecco-F12 equal-ratio mixture medium+10% fetal bovine serum). […]
[…] The resulting extracted protein solution was used in the measurement of luciferase luminescence. In the luciferase luminescence measurement, 100 μl of an assay solution (PicaGene Assay Kit, Toyo B-Net Co., Ltd.) was added to 10 μl of the collected protein solution and stirred, and immediately after the stirring, the degree of luminescence per 2 minutes was measured with a luminometer LB-940 (Berthold). The resulting degree of luminescence was divided by the total protein amount of the protein solution so that it was converted into a relative luminescence intensity (RLU/min/μg protein). The total protein amount of the solution was measured with a protein assay kit (Bio-Rad).

As to `O=c1cc(-c2ccccc2)oc2ccc3ccccc3c12` [βNF, β-naphthoflavone], the “luciferase luminescence in the mice” value in assay [1] (genetically modified mice #176, #177, #184 (T1 generation), βNF 40 mg/kg intraperitoneal in corn oil, 72 hours after administration, whole-body IVIS, FIG. 6) is “luciferase luminescence was observed in all the genetically modified mice”. Further, the “degree of luminescence from cut brain section” value in assay [1] (genetically modified mouse #176, βNF 40 mg/kg intraperitoneal, brain cut in the vicinity of the midbrain, IVIS, FIG. 7) is “an increase in the degree of luminescence was detected in the vicinity of the midbrain or hippocampus”.
As for `Clc1cc2c(cc1Cl)Oc1cc(Cl)c(Cl)cc1O2` [TCDD, 2,3,7,8-tetrachlorodibenzo-p-dioxin], the “change in the degree of luminescence with TCDD concentration” value in assay [2] (TCDD 0, 0.1 or 10 ng/ml, primary neuronal cells of mouse #176 embryos) is on record as “TCDD concentration-dependent increase in the degree of luminescence”. Moreover, the “increase in the degree of luminescence from the unexposed case” value in assay [2] (exposure to 0.1 nM TCDD) is listed as 1.3 times; in assay [2] (exposure to 10 ng/ml TCDD) it was 3.1 times.

The record behind these values is patent publication US20100132057A1, “GENETICALLY MODIFIED ANIMAL FOR USE IN EVALUATING HARMFULNESS OF TEST SUBSTANCE” (priority 2008, published 2010).
